# Measured values from PMC8292346, “Dysfunction of the key ferroptosis-surveilling systems hypersensitizes mice to tubular necrosis during acute kidney injury” (Nature Communications, 2021).
# Where “and” joins values, the source holds several entries; their conditions need not be identical. Equal values may be shown once. Entries after “also recorded” stand apart in the source; their conditions may differ.
# Columns and labels:
# [1] = test system: Mouse cortical tubule cells (MCT); assay: FINs/ferroptocide, 7-AAD/annexin V flow cytometry; format: cell-based; conditions: for double-negative events (7-AAD/annexin V): MCT, alone (DMSO) or with Fer-1 1 µM, Nec-1s 30 µM, Nec-1f 30 µM
# How it was run: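 This flow cytometry assay measured 7-AAD and annexin V staining. Harvested cell pellets were rinsed twice in PBS, and 5 μl annexin-V-FITC plus 5 μl 7-AAD (BD Biosciences) were added in 100 μl annexin-V binding buffer for 15 min. Samples were recorded on an LSRII with FACS Diva 6.1.1 software and analyzed using FlowJo v10.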
# [2] = test system: HT1080 cells; assay: CellTiter-Glo luminescent cell viability assay (ATP), dose-response; format: cell-based, human
# How it was run: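 Ferroptosis inducers and/or inhibitors were added to HT1080 cells 24 h after plating. Viability was read as ATP luminescence after adding CellTiter-Glo reagent, shaking 2 min and incubating 10 min at room temperature.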
# [3] = test system: NIH3T3 cells; assay: Ferroptosis inducers (FINs)/ferroptocide, 7-AAD/annexin V flow cytometry; format: cell-based, murine; conditions: alone (DMSO) or with Fer-1 1 µM, Nec-1s 30 µM, Nec-1f 30 µM
# How it was run: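 Cell death was assessed by flow cytometry with 7-AAD and annexin V. NIH3T3 cells grown in six-well plates or petri dishes were harvested, washed twice with PBS, and labeled for 15 min with 5 μl 7-AAD plus 5 μl annexin-V-FITC in 100 μl binding buffer. Samples were recorded on an LSRII (FACS Diva 6.1.1) and analyzed with FlowJo v10.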
# [4] = test system: NIH3T3 cells; assay: Simultaneous ferroptosis and necroptosis (RSL3 plus TZ), 7-AAD/annexin V flow cytometry; format: cell-based, murine
# Description: (§1) To induce necroptosis in a human cell line, HT29 cells were stimulated at the indicated time points with 20 ng/ml human TNFα (Biolegend), 1 μM SMAC-mimetics (Birinapant, Chemietek), and 20 μM zVAD-fmk (Selleckchem, herein referred to as zVAD). For the induction of necroptosis in NIH3T3 cells, cells were incubated with 20 ng/ml TNF-α and 20 μM zVAD for indicated time points. […] Cells were seeded in six-well plates or petri dishes. […] After indicated time points, cells were collected and prepared for flow cytometry, immunoblotting, and/or LDH release assays.
# (§2) Cells were harvested and the pellets were washed twice in PBS and stained with 5 μl of 7-AAD (BD Biosciences) and 5 μl of annexin-V-FITC (BD Biosciences) added to 100 μl annexin-V binding buffer (BD Biosciences). After 15 min, cells were recorded on the LSRII with the FACS Diva 6.1.1 software (BD Biosciences) and subsequently analyzed with the FlowJo v10 software (Tree Star).
# [5] = test system: NIH3T3 cells; assay: Ferroptosis inducers (FINs)/ferroptocide, 7-AAD/annexin V flow cytometry; format: cell-based, murine; conditions: individual replicates
# [6] = test system: HT29 cells; assay: TSZ-induced necroptosis, 7-AAD/annexin V flow cytometry; format: cell-based, human; conditions: Nec-1f 10 µM
# Description: as §1, §2
# [7] = test system: primary murine tubular cells; assay: RSL3-induced LDH release of primary kidney tubular cells; format: cell-based; conditions: RSL3 14 h
# Description: The LDH release of cells or of freshly isolated kidney tubules was measured according to manufacturers’ instructions at indicated time points. In brief, an aliquot of the supernatant was taken and Lysis Solution was added for 45 min to induce maximal LDH release before another aliquot of the supernatant was taken. Subsequently, the supernatants were incubated with CytoTox 96® Reagent for 15 min protected from light at room temperature before adding Stop Solution. Absorbance was measured at 490 nm.
# Generation, cell culture, and induction of cell death in primary murine tubular cells. Murine tubular cells were generated by outgrowth from isolated renal tubules (see above). Primary murine tubules were placed in six-well plates containing Dulbecco’s Modified Eagle Medium F-12 Nutrient Mixture without phenol red (DMEM/F12, Thermo Fisher), supplemented with 0.01 mg/ml recombinant human insulin, 5.5 μg/ml human transferrin, 0.005 μg/ml Na2SeO3 (ITS without linoleic acid, Sigma Aldrich), 50 nM hydrocortisone, 100 U/ml penicillin, and 100 μg/ml streptomycin (Pen/Strep, Thermo Fisher). After two days, the outgrown primary murine tubular cells were washed with PBS and a fresh medium was added. When the number of primary murine tubular cells reached approximately 50% confluence, the cells were removed from the six-well plates using Trypsin-EDTA (Thermo Fisher), washed with medium and a Ficoll Paque Plus (Sigma Aldrich) gradient was performed to remove any dead cells, and debris from the murine renal tubules. Cells were washed twice with PBS and seeded in six-well plates with medium. Once the number of grown cells reached approximately 50% confluence, they were washed with PBS and treated with type 2 FIN: RSL3 (also see Supplementary Table 2 for details). After 14 h, medium and cells were collected and prepared for LDH release assay. Images of the treated primary murine tubular cells were obtained using a 20×/0.30 PH1 objective on a Leica DMi1 microscope.
# [8] = test system: HT1080 cells; assay: Ferroptosis inducers (FINs)/ferroptocide, 7-AAD/annexin V flow cytometry; format: cell-based, human; conditions: for double-negative events (7-AAD/annexin V): alone (DMSO) or with Fer-1 1 µM
# [9] = test system: CD10-135 cells; assay: FINs/ferroptocide, LDH release assay; format: cell-based, human; design: LDH release: unit not given here; conditions: for LDH release: Nec-1f 30 µM
# [10] = Inhibited co-autoxidation of egg phosphatidylcholine liposomes and STY-BODIPY (radical-trapping antioxidant activity)
# Description: Inhibitors were then added (5 μl aliquots) at desired concentrations to the appropriate wells followed by vigorous mixing. […] Experiments were performed in triplicate using HPLC grade solvents and kinetic data is given as an average of three independent measurements. […]
smiles,measurement,setting,value
CN1C(=O)C(Cc2c[nH]c3c(Cl)cccc23)NC1=S (stereo not shown) [Nec-1f],Effect on FINO2-induced death,[1]; MCT cells,failed to prevent
same,Effect on RSL3-induced annexin V / 7-AAD positivity,[1]; MCT cells,inhibited
same,double-negative events (7-AAD/annexin V),[1]; 1.13 µM RSL3 6 h,93.7% and 87.8% and 51.4%
same,double-negative events (7-AAD/annexin V),[1]; 5 µM erastin 24 h,79.8% and 85.4% and 81.9% and 88.8%
same,double-negative events (7-AAD/annexin V),[1]; 10 µM FIN56 24 h,93.7% and 87.9% and 91.7%
same,ATP luminescence (CellTiterGlo),"[2]; HT1080 + Erastin, inhibitor concentration 0.01 (unit not given)",6.81%
same,ATP luminescence (CellTiterGlo),"[2]; HT1080 + Erastin, inhibitor concentration 0.1 (unit not given)",7.52%
same,ATP luminescence (CellTiterGlo),"[2]; HT1080 + Erastin, inhibitor concentration 1 (unit not given)",8.325%
same,ATP luminescence (CellTiterGlo),"[2]; HT1080 + Erastin, inhibitor concentration 10 (unit not given)",21.5066%
same,ATP luminescence (CellTiterGlo),"[2]; HT1080 + Erastin, inhibitor concentration 30 (unit not given)",111.285%
same,ATP luminescence (CellTiterGlo),"[2]; HT1080 + Ferroptocide, inhibitor concentration 0.01 (unit not given)",1.591% and 1.035%
same,ATP luminescence (CellTiterGlo),"[2]; HT1080 + Ferroptocide, inhibitor concentration 0.1 (unit not given)",1.25% and 2.131%
same,ATP luminescence (CellTiterGlo),"[2]; HT1080 + Ferroptocide, inhibitor concentration 1 (unit not given)",5.941% and 7.943%
same,ATP luminescence (CellTiterGlo),"[2]; HT1080 + Ferroptocide, inhibitor concentration 10 (unit not given)",11.997% and 7.702%
same,ATP luminescence (CellTiterGlo),"[2]; HT1080 + RSL3, inhibitor concentration 0.01 (unit not given)",48.1449% and 58.3128%
same,ATP luminescence (CellTiterGlo),"[2]; HT1080 + RSL3, inhibitor concentration 0.1 (unit not given)",48.8384% and 72.7198%
same,ATP luminescence (CellTiterGlo),"[2]; HT1080 + RSL3, inhibitor concentration 1 (unit not given)",51.482% and 85.4435%
same,ATP luminescence (CellTiterGlo),"[2]; HT1080 + RSL3, inhibitor concentration 10 (unit not given)",49.7032% and 98.9558%
same,ATP luminescence (CellTiterGlo),"[2]; HT1080 + RSL3, inhibitor concentration 30 (unit not given)",46.9784% and 93.7693%
same,double-negative events (7-AAD/annexin V),"[3]; NIH3T3, 1.13 µM RSL3 6 h",88.9% and 61.8% and 72.9% and 86.1% and 70.3% and 57.8% and 80.3%
same,double-negative events (7-AAD/annexin V),"[3]; NIH3T3, 10 µM FIN56 24 h",88.1% and 87.8% and 92.6%
same,Rescue from necrosis induced by RSL3 plus TZ,"[4]; NIH3T3, 16 h",Nec-1f does; also recorded: maintained cell viability
same,"7-AAD/annexin V flow cytometry, source data of bar graph Fig3c","[4]; NIH3T3, RSL3 (1.13 µM) + TZ 16 h with inhibitor",75.7% and 76% and 68%
same,cells in 7-AAD/annexin V flow cytometry (FigS9b),[5]; Erastin-induced ferroptosis,83.1% and 77.0% and 78.0% and 47.0%
same,cells in 7-AAD/annexin V flow cytometry (FigS9b),[5]; FIN56-induced ferroptosis,88.0% and 64.0%
same,cells in 7-AAD/annexin V flow cytometry (FigS9b),[5]; FINO2-induced ferroptosis,75.0% and 57.0%
same,cells in 7-AAD/annexin V flow cytometry (FigS9b),[5]; Ferroptocide-induced cell death,80.0% and 8.0%
same,cells in 7-AAD/annexin V flow cytometry (FigS9b),[5]; RSL3-induced ferroptosis,80.0% and 84.0%
same,"7-AAD/annexin V flow cytometry, source data of bar graph Fig2e","[6]; HT29, TSZ (TNFα 20 ng/ml, birinapant 1 µM, zVAD-fmk 20 µM) 16 h",80.1% and 85.8% and 92.9% and 83.9% and 82.2% and 61.2% and 88.8% and 88.1%
same,"Protection against TSZ-induced necroptosis (7-AAD/annexin V, words)","[6]; HT29, TSZ",maintained double negativity
same,LDH release,"[7]; primary kidney tubular cells, alone (DMSO) or with Fer-1 or Nec-1f 30 µM",29.82% and 33.38% and 28.13%
same,Effect on RSL3-induced LDH release,[7]; primary renal tubular cells,prevented
same,Prevention of FINO2-induced ferroptosis,[8]; HT1080,less effective
same,double-negative events (7-AAD/annexin V),"[8]; HT1080, 1.13 µM RSL3 6 h, Nec-1s 30 µM, Nec-1f 30 µM",88% and 71.9% and 83.1% and 89.5%
same,double-negative events (7-AAD/annexin V),"[8]; HT1080, 10 µM FIN56 24 h, Nec-1s 30 µM, Nec-1f 30 µM",82.6% and 86.1% and 84.4%
same,double-negative events (7-AAD/annexin V),"[8]; HT1080, 10 µM FINO2 24 h, Nec-1s 30 µM, Nec-1f 30 µM",80.8% and 51.5% and 65.9% and 53.8%
same,Inhibition of cell death induction by FINs/ferroptocide,"[8]; HT1080, Fer-1 1 µM, Nec-1s 30 µM, Nec-1f 30 µM",inhibition of cell death induction
same,LDH release,"[9]; CD10-135, FIN56 alone (FIN) or with Fer-1, Nec-1s",25.01 and 21.5704 and 29.6875
same,LDH release,"[9]; CD10-135, FINO2 alone (FIN) or with Fer-1, Nec-1s",27.07 and 34.1078 and 34.3349
same,LDH release,"[9]; CD10-135, RSL3 alone (FIN) or with Fer-1, Nec-1s",36.35 and 26.8291
same,LDH release,"[9]; CD10-135, erastin alone (FIN) or with Fer-1, Nec-1s",25.13 and 17.5 and 32.5
same,LDH release,"[9]; CD10-135, ferroptocide alone (FIN) or with Fer-1, Nec-1s",89.05 and 90.3713
same,Effect on FIN-induced LDH release,[9]; CD10-135 cells,reversed
same,RTA activity in co-autoxidation of egg phosphatidylcholine lipids in STY-BODIPY-embedded liposomes,[10],devoid of RTA activity
same,ΔSTY-BODIPY,"[10]; 2 µM Nec-1f, time 53820 s",-0.4045 µM
same,ΔSTY-BODIPY,"[10]; 2 µM Nec-1f, time 53880 s",-0.4072 µM
same,ΔSTY-BODIPY,"[10]; 2 µM Nec-1f, time 53940 s",-0.4054 µM
same,ΔSTY-BODIPY,"[10]; 2 µM Nec-1f, time 54000 s",-0.4034 µM
same,ΔSTY-BODIPY,"[10]; 10 µM Nec-1f, time 53820 s",-0.5158 µM
same,ΔSTY-BODIPY,"[10]; 10 µM Nec-1f, time 53880 s",-0.5141 µM
same,ΔSTY-BODIPY,"[10]; 10 µM Nec-1f, time 53940 s",-0.5142 µM
same,ΔSTY-BODIPY,"[10]; 10 µM Nec-1f, time 54000 s",-0.5122 µM
